The source of these data is ChEMBL document CHEMBL5729210, “Benzodiazepine derivatives as RSV inhibitors” (2022).

SMILES strings stand for the structures.

This experiment is described as follows: RSV-A Assay: The description is Japanese.
`O=C1Nc2ccccc2C(c2ccccc2)=NC1Nc1nnc(-c2ccc(-n3cncn3)c(F)c2)o1` (centres undefined): the EC50 result is “in the range around 600 nM”. On to `O=C1Nc2c(F)cccc2C(c2ccccc2)=N[C@H]1Nc1nnc(-c2ccccc2N2CCOCC2)o1`, for which the EC50 is > 800 nM.

Turning to `CNc1cc(C(F)(F)F)cnc1-c1nnc(N[C@H]2N=C(c3ccccc3)c3ccccc3NC2=O)o1`, the EC50 is > 800 nM. Next, `CC(F)(F)c1nc(-c2nnc(N[C@H]3N=C(c4ccccc4)c4ccccc4NC3=O)o2)c(N2CCOCC2)s1`: < 400 nM; `O=C1Nc2ccccc2C(c2ccccc2)=N[C@@H]1Nc1nnc(-c2ccc(N3CCOCC3)cc2F)o1`: < 400 nM. Next, `C#Cc1cnc(-c2nnc(N[C@H]3N=C(c4ccccc4)c4ccccc4NC3=O)o2)c(N2CCOCC2)c1`: < 400 nM; `O=C1Nc2ccccc2C(c2ccccc2)=N[C@@H]1Nc1nnc(-c2nc(C(F)(F)F)sc2N[C@@H]2CCOC2)o1`: < 400 nM; `O=C1Nc2ccccc2C(c2ccccc2)=NC1Nc1nnc(-c2ccc(F)nc2)o1` (centres undefined): “in the range around 600 nM”. Take `O=C1Nc2ccccc2C(c2ccccc2)=NC1Nc1nnc(-c2cn(-c3ccc(F)cn3)nc2N2CCOCC2)o1` (centres undefined): the EC50 is < 400 nM. In the case of `O=C1Nc2ccccc2C(c2ccccc2)=NC1Nc1nnc(-c2ccccc2)o1` (centres undefined), the EC50 is > 800 nM. In the case of `COCC1(Nc2cc(C(F)(F)F)cnc2-c2nnc(N[C@H]3N=C(c4ccccc4)c4ccccc4NC3=O)o2)CC1`, the EC50 is > 800 nM.

Take `CCOC(=O)c1cnn2ccc(C)cc12`: the EC50 was > 800 nM.

`Cn1cc(-c2cc(C#N)cnc2-c2nnc(N[C@H]3N=C(c4ccccc4)c4ccccc4NC3=O)o2)ccc1=O`: the EC50 was > 800 nM.

With `CS(=O)(=O)c1ccc(-c2nnc(NC3N=C(c4ccccc4)c4ccccc4NC3=O)o2)nc1` (centres undefined), the EC50 was > 800 nM. `N#Cc1ccc(-c2nnc(NC3N=C(c4ccccc4)c4ccccc4NC3=O)o2)cc1F` (centres undefined): the EC50 was > 800 nM. For the molecule `O=C1Nc2ccccc2C(c2ccccc2)=NC1Nc1nnc(-c2ccc(-n3cncn3)cc2)o1` (centres undefined), the EC50 result was “in the range around 600 nM”.

In the case of `CC1(c2nnc(NC3N=C(c4ccccc4)c4ccccc4NC3=O)o2)CCNC1` (centres undefined), the EC50 was > 800 nM. On to `COc1ccc(-c2nnc(NC3N=C(c4ccccc4)c4ccccc4NC3=O)o2)cn1` (centres undefined), for which the EC50 was < 400 nM. In the case of `COC[C@@H]1CCCN1c1sc(C(F)(F)F)nc1-c1nnc(N[C@H]2N=C(c3ccccc3)c3ccccc3NC2=O)o1`, the EC50 was > 800 nM. As for `O=C1Nc2ccccc2C(c2ccccc2)=NC1Nc1nnc(-c2ccccc2C2=CCOCC2)o1` (centres undefined), the EC50 was > 800 nM. The result for `C[C@@H]1CN(c2cc(F)ccc2-c2nnc(N[C@H]3N=C(c4ccccc4)c4ccccc4NC3=O)o2)C[C@H](C)O1` reads > 800 nM; that for `O=C1Nc2ccccc2C(c2ccccc2)=N[C@@H]1Nc1nnc(-c2nc(C3(C(F)(F)F)CCC3)sc2N2CCOCC2)o1`, < 400 nM. For `O=C1Nc2ccccc2C(c2ccccc2)=NC1Nc1nnc(C2CC(F)(F)C2)o1` (centres undefined), the EC50 is > 800 nM.

Take `N#Cc1cnc(-c2nnc(N[C@H]3N=C(c4ccccc4)c4ccccc4NC3=O)o2)c(N2CCOCC2)c1`: the EC50 is < 400 nM.

Usually EC50 stands for the concentration that produces a half-maximal response. Low readings indicate an effect from little substance, high ones a need for much substance.
